Biological target: T1, DcCHI1 (Dracaena cambodiana, UniProt A0A8A5KFS9)
T1 construct: gene CHI1
T1 sequence (A0A8A5KFS9 1-219): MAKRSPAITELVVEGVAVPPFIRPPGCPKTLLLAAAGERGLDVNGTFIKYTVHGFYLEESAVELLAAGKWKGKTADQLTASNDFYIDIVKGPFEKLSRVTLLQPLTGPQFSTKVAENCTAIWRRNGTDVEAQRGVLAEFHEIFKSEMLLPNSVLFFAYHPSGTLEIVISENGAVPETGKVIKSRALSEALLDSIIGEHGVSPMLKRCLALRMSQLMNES
Assay: HPLC of reaction product
Type: biochemical
Conditions: 100 mM Tris-HCl pH 7.6, 30 °C, 2 min; 5 µl of 5 mM substrate in 200 µl

Structure (SMILES) | HPLC of reaction product
O=C1C[C@@H](c2ccc(O)cc2)Oc2cc(O)cc(O)c21 [naringenin] | recombinant DcCHI1 could catalyze the formation of naringenin with naringenin chalcone as the substrate
O=C(/C=C/c1ccc(O)cc1)c1c(O)cc(O)cc1O [naringenin chalcone] | recombinant DcCHI1 could catalyze the formation of naringenin with naringenin chalcone as the substrate

Source: publication PMC7947852, “Identification and Characterization of Chalcone Isomerase Genes Involved in Flavonoid Production in Dracaena cambodiana” (Frontiers in Plant Science, 2021)
